In patent US12605461B2, “Hydrogel compositions and uses thereof” (priority 2019, dated 2026):
One block for each compound: values may come before it.

Experiments:
BT474 cells = test: Drug screening, BT474 (RealTime-Glo MT); type: cell-based, human
Description: (§1) The following example describes experiments conducted to calculate IC50 values using a non-linear fit in Graphpad Prism by GraphPad Software Inc.
(§2) Cells grown in 2D were dosed starting after 24 h with either EHT-1864, AZD6482, Maritoclax, ZSTK474, Afatinib, TW-37, ABT-199, ABT-263 and Temsirolimus between 50 nM and up to 20 μM using an Hewlett-Packard (HP) D300 digital dispenser containing up to 0.2% DMSO then treated again 48 h following the first dose and ended after 72 h of treatment. Cells grown in 3D were dosed after 14 days with up to 0.2% DMSO every 48 h for 7 days. Cell viability was assessed by removing media and replacing it with 100 μL of sterile RealTime-Glo MT (Promega) which was diluted 1000× in media warmed to 37° C. After 1 h luminescence was detected using a Tecan microplate reader (Life Sciences) with 1 second integration time. Cell viability was calculated by subtracting background luminescence from all groups; treatment was compared to control wells, which received up to 0.2% DMSO. Data represents 3 independent replicates consisting of different cell passages for each condition to calculate the mean and standard deviation of cell viability.

MDA-MB-468 cells [1] = test: Drug screening, MDA-MB-468 (PrestoBlue); type: cell-based; conditions: Homo sapiens, treated 7 days
Description: as §1
Cells were dosed with 0.1, 1, 5, 20 and 50 μM Erlotinib-HCl containing 0.27% DMSO every 48 h for 7 days. Cell viability was assessed by removing media and replacing it with 150 μL of sterile, PrestoBlue which was diluted 10× in media warmed to 37° C. After 2.5 hours fluorescence was detected using a Tecan microplate reader (Life Sciences) by exciting at 570 nm and detected at 590 nm. Cell viability was calculated by subtracting background fluorescence from all groups; treatment was compared to control wells, which received 0.27% DMSO. Data represents 3 independent replicates consisting of different cell passages for each condition to calculate the mean and standard deviation of cell viability.

[2] = test system: tumor derived mammary luminal epithelial cells; test: Drug screening with primary cells; type: cell-based; conditions: human patient tumour luminal B breast cancer cells
Description: as §2, with “dosed” for “dosed starting”, “Maritoclax” for “either EHT-1864, AZD6482, Maritoclax, ZSTK474, Afatinib, TW-37, ABT-199, ABT-263 and Temsirolimus”, “10” for “50”, “DMSO. IC50 values were calculated using a non-linear fit in Graphpad Prism by GraphPad Software Inc.” for “DMSO.”

MDA-MB-468 cells [3] = test: RGDOA cell adhesion assay; type: cell-based, human; conditions: RGDOA 250-1000 μM conjugated to HA-oxime hydrogels for 1 hour
Description: RGDOA Cell Adhesion assay: […] After gelling for 2 h at 37° C., 25 μL of 125, 250, 500, and 1000 μM RGDOA solutions in media described above were added to hydrogels. After treatment with RGDOA solutions for 1 h at 37° C., the media was removed and gels were washed three times with media at 25 μL per well. MDA-MB-468 cells were seeded on the surface of the hydrogels at a density of 3000 cells well^−1 in 25 μL of media and incubated for 30 min. Media was gently removed by pipette and replaced with PBS cooled to 4° C. […] Cells nuclei were stained with Hoechst 33342, 1/250 in PBS, 25 μL well^−1 for 4 h. Images were obtained using an Olympus confocal microscope at 10× magnification with z-stacks of 12 μm step size. Cell number was quantified using spot identification in Imaris 8 software by Bitplane. The fold change in cell number was calculated from control hydrogels containing no RGDOA peptide. A minimum of 3 independent replicates consisting of different cell passages were performed for each condition.

Compound: Cc1cc([C@@H](C)Nc2ccccc2C(=O)O)c2nc(N3CCOCC3)cc(=O)n2c1 [AZD6482]
responsiveness in HA-oxime versus Matrigel or 2D TCPS (BT474 cells; BT474 cells): more responsive

Compound: O=c1cc(CN2CCOCC2)occ1OCCCCCSc1ccnc2cc(C(F)(F)F)ccc12 [EHT-1864]
responsiveness in HA-oxime versus Matrigel (BT474 cells; BT474 cells): more responsive

Compound: FC(F)c1nc2ccccc2n1-c1nc(N2CCOCC2)nc(N2CCOCC2)n1 [ZSTK474]
cell response between HA-oxime, Matrigel and 2D TCPS (BT474 cells; BT474 cells): cell response did not always differ between the 3 culture conditions

IC50 (MDA-MB-468 cells [1]; MDA-MB-468, MDA-MB-468 cultured in 3D (Matrigel, HA-oxime+/−Ln) 21 days): ~4.5 µM
IC50 (MDA-MB-468 cells [1]; MDA-MB-468, MDA-MB-468 grown on 2D TCPS 21 days): 37.6 µM
Compound: C#Cc1cccc(Nc2ncnc3cc(OCCOC)c(OCCOC)cc23)c1 [erlotinib]

Compound: O=C(c1ccccc1O)c1[nH]c(Cl)c(Cl)c1-n1c(C(=O)c2ccccc2O)cc(Cl)c1Cl [maritoclax]
sensitivity in HA-oxime versus 2D TCPS (BT474 cells; BT474 cells): over tenfold more sensitive
IC50 (BT474 cells; BT474 cells cultured in 2D TCPS): 5.5 µM
IC50 (BT474 cells; BT474 cells cultured in HA-oxime): 0.59 µM
sensitivity in 3D HA-oxime versus 2D TCPS [2]: significantly more sensitive

Compound: Acetyl-GRGDSPASSKK(OA)G [RGDOA]
number of adherent MDA-MB-468 cells (MDA-MB-468 cells [3]): increase in the number of adherent cells
